According to ChEMBL document CHEMBL5036330, “Discovery of 8,9-seco-ent-Kaurane Diterpenoids as Potential Leads for the Treatment of Triple-Negative Breast Cancer” (J Med Chem, 2021):

Tested on: MDA-MB-231
Assay: Induction of cell cycle arrest in human MDA-MB-231 cells assessed as accumulation of cells at S phase at 5 uM measured after 24 hrs by flow cytometry (reference value: 32.2%)
Type: functional

SMILES: C=C1C(=O)C2=C[C@H]1CCC(=O)[C@]1(C)[C@H](O)CCC(C)(C)[C@H]1C[C@H]2O
- Activity: 35.1%
